Source: patent US11542316B2, “S-Arrestin peptides and therapeutic uses thereof” (APITOPE INTERNATIONAL NV, priority 2017, dated 2023)
Ends that are not written are not given here.

Experiments:
[1] = test system: LN cells and splenocytes upon SAg or peptide restimulation; experiment: Ex vivo tolerization experiment, DR2tg mice; format: in vivo; settings: DR2 mice, IFN-γ
Experimental: FIG. 7: Ex vivo tolerisation protocol. Mice are injected subcutaneously in the flank with 0.1 μg/ml, 1 μg/ml and 10 μg/ml peptide on days −15, −13 and −11, followed by 3 injections of 100 μg/ml on days −8, −6 and −4 (escalating dose regime). On day 0, mice are immunized subcutaneously at the base of the tail with SAg/CFA or peptide/CFA. Mice are sacrificed 10 days after immunization to measure proliferation of LN cells and splenocytes upon SAg or peptide restimulation. LN, lymph nodes.
FIG. 11: Ex vivo tolerance induction by HIP-9K1-KKK apitope. DR2 mice are injected subcutaneously in the flank with 0.1 μg/ml, 1 μg/ml and 10 μg/ml HIP-9K1-KKK on days −15, −13 and −11, followed by 3 injections of 100 μg/ml on days −8, −6 and −4 (escalating dose regime). On day 0, mice are immunized subcutaneously at the base of the tail with HIP-9FL/CFA. Mice are sacrificed 10 days after immunization to measure proliferation of LN cells and splenocytes upon SAg or peptide restimulation. Data represent mean±SEM of the concentration values for the PBS-treated mice (black lines) and peptide-treated mice (color lines). IFN-γ production expressed as IFN-γ concentration (pg/ml). Two-way ANOVA was used to measure overall treatment effects on T cell activation and p-values are written in the graphs. Bonferonni post-hoc testing was used and significant differences are indicated in the graphs (* p<0.05; **** p<0.0001). LN, lymph nodes. (A) Tolerisation against SAg in LN. (B) Tolerisation against HIP-9FL and HIP-9K1-KKK in LN. (C) Tolerisation against SAg in spleen. (D) Tolerisation against HIP-9FL and HIP-9K1-KKK in spleen.
FIG. 13: Ex vivo tolerance induction by HIP-12G1-KKK apitope. DR2 mice are injected subcutaneously in the flank with 0.1 μg/ml, 1 μg/ml and 10 μg/ml HIP-12G1-KKK on days −15, −13 and −11, followed by 3 injections of 100 μg/ml on days −8, −6 and −4 (escalating dose regime). On day 0, mice are immunized subcutaneously at the base of the tail with HIP-12AK/CFA. Mice are sacrificed 10 days after immunization to measure proliferation of LN cells and splenocytes upon SAg or peptide restimulation. Data represent mean±SEM of the concentration values for the PBS-treated mice (black lines) and peptide-treated mice (color lines). IFN-γ production expressed as IFN-γ concentration (pg/ml). Two-way ANOVA was used to measure overall treatment effects on T cell activation and p-values are written in the graphs. Bonferonni post-hoc testing was used and significant differences are indicated in the graphs (** p<0.01; *** p<0.001: **** p<0.0001). LN, lymph nodes. (A) Tolerisation against HIP-12G1-KKK and HIP-12G1 in LN. (B) Tolerisation against HIP-12G1-KKK in spleen.
DR3tg or DR2tg mice were injected subcutaneously in the flank region with 0.1 μg, 1 μg and 10 μg of peptide on days −15, −13 and −11 respectively, followed by 3 injections of 100 μg peptide on days −8, −6 and −4 (dose escalation schedule). On day 0, the mice were immunised subcutaneously in the base of the tail with 50 μg antigen (parental peptide) emulsified in CFA (peptide/CFA). Ten days after immunisation, draining lymph nodes (LN) and spleens were harvested. LN cells and splenocytes were isolated and cultured in X-vivo 15 medium (supplemented with 2 mM L-glutamine, 50 U/mL penicillin and 50 U/mL streptomycin; Lonza) in 96-well flat bottom plates. To investigate antigen-induced cell proliferation, 0.5×10^6 cells/well were cultured (200 μl/well) for 72 hours with different antigen concentrations (0-25 μg/ml) or with 12.5 μg/ml purified protein derivative (PPD; priming control; Statens serum institut, Copenhagen, Denmark). After 72 hours, supernatant was harvested and stored at −80° C. until further analysis. IFN-γ concentrations in supernatants were assessed by cytokine ELISA (R&D Systems, Abingdon, UK) to measure cell activation.

[2] = test system: T cell line with MGAR APC; experiment: Antigen Processing Independent Presentation System (APIPS) assay, fresh or fixed MGAR APC; format: cell-based, DR2 mice; settings: DR2 T cell line, IFN-γ, 24 h
Experimental: FIG. 4: Identification of apitopes within HIP-9FL. DR2 mice were immunized with HIP-9FL-KKK and a T cell line was established. Ten days after immunization the LN and spleens were harvested and cultured with different concentrations of peptide (0.1-1-2.5 and 5 μg/ml); 2×10^6 cells/ml APCs+1×10^6 cells/ml CD4 T cells per well. At day 7 the cells were re-stimulated with the same concentrations of peptide. On day 21 an APIPS test was done using commercial APC (MGAR). After 24 h, antigen-induced T cell activation was measured by IFN-γ ELISA and shown as OD values. The graph represents the mean of duplicate measurements±SEM. LN, lymph nodes; APC, Antigen presenting cell; APIPS, Antigen Processing Independent Presentation System.
Antigen-specific clones or TCL were tested for their reactivity to the peptides, presented by fixed or not fixed (fresh) cells (VAVY or MGAR) (=APCs). 5×10^4 cells from the individual clones were cultured with 10 μg/ml peptide and 5×10^4 fixed or fresh APCs. In the case of TCL, 5×10^4 cells were cultured with 10 μg/ml and 25 μg/ml peptide and 2.5×10^4 fixed or fresh APCs. To fixate APCs, cells were incubated with 0.5% paraformaldehyde (Merck, Darmstadt, Germany) (pH7) for 5 min at room temperature (RT). The fixation reaction was stopped by adding 0.4M glycine (Sigma-Aldrich) and washing the cells in RPMI-10% FCS. Additionally, reactivity towards human SAg protein (QBiologicals, Eurofins Amatsigroup, Ghent, Belgium) was measured to identify cryptic epitopes. After 24 h or 48 h, antigen-induced IFN-γ or IL-2 production (respectively) was measured by ELISA (R&D Systems, Abingdon, UK).
DR3tg or DR2tg mice were immunised subcutaneously in the base of the tail with 50 μg peptide emulsified in CFA (peptide/CFA). Ten days after immunisation, draining lymph nodes (LN) and spleens were harvested. […] At day 7, TCL cells were counted and cultured with fresh APC, peptides and IL-2, all at the same concentrations as above. […]

For “KKKAFVEQVANVVLKKK-NH2 [HIP-9K1-KKK, KKKAFVEQVANVVLKKK]”, the “tolerization against the peptide itself / parental peptide” value ([1]; LN) was “tolerization induced”, the “tolerization against SAg” value ([1]; LN, escalating dose regime s.c.) was “tolerization induced” and the “tolerization against SAg” value ([1]; spleen) was “Tolerance is also induced”. The “tolerization against the peptide itself” value ([1]; spleen) was “Tolerance is also induced” and the “behaves as apitope (response to peptide presented by fresh or fixed APC)” value [2] was “behave as apitopes”.
